The target in one assay is MERS-CoV 3CLpro (Middle East respiratory syndrome-related coronavirus, UniProt K9N7C7). Briefly: biochemical.
The next assay has as its target SARS-CoV 3CLpro (Severe acute respiratory syndrome coronavirus, UniProt P0C6X7). As to the kind of experiment: biochemical.
The target in another assay is HCoV-229E 3CLpro (Human coronavirus 229E, UniProt P0C6X1). Briefly: HCoV-229E 3CLpro inhibition assay (FRET). Type of assay: biochemical.
The next assay deals with SARS-CoV-2 3CLpro (Severe acute respiratory syndrome coronavirus 2, UniProt P0DTD1). As to the kind of experiment: biochemical.

The record followed here is US20250059171A1 (Hoffmann-La Roche Inc., priority 2021, published 2025).

HCoV-229E 3CLpro, sequence (P0C6X1 2966-3267): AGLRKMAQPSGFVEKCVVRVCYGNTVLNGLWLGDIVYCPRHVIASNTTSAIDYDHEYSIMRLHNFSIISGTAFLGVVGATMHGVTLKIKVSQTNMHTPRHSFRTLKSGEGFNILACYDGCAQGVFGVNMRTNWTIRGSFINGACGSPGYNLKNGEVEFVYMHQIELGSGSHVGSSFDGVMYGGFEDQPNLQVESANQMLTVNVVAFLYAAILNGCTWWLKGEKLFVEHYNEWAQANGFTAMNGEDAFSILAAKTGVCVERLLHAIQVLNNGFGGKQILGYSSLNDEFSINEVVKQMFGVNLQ
MERS-CoV 3CLpro, sequence (K9N7C7 3248-3553): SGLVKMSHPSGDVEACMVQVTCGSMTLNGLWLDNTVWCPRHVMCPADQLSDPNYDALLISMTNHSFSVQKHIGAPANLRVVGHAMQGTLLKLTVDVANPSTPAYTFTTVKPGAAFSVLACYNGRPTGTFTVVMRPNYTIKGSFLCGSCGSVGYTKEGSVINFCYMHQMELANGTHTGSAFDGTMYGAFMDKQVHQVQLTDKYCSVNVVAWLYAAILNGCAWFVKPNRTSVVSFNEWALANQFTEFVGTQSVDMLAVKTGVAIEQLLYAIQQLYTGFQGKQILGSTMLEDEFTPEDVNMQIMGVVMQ

Regarding `CCC(C)(C)[C@H](NC(=O)C1CC1)C(=O)N1C[C@@H]2CCC[C@@H]2[C@H]1C(=O)NN(C[C@@H]1CCCNC1=O)C(=O)[C@H](F)Cl` [Example 167a, N-[(1S)-1-[(3S,3aS,6aR)-3-[[[(2R)-2-chloro-2-fluoro-acetyl]-[[(3S)-2-oxo-3-piperidyl]methyl]amino]carbamoyl]-3,3a,4,5,6,6a-hexahydro-1H-cyclopenta[c]pyrrole-2-carbonyl]-2,2-dimethyl-butyl]cyclopropanecarboxamide], the IC50 (commonly the concentration needed to halve the response being measured) was 169 nM against MERS-CoV 3CLpro, 15 nM at SARS-CoV 3CLpro, 53 nM on HCoV-229E 3CLpro and 10 nM against SARS-CoV-2 3CLpro.
Regarding `CCC(C)(C)[C@H](NC(=O)C1CC1)C(=O)N1C[C@@H]2CCC[C@@H]2[C@H]1C(=O)NN(C[C@H]1CCCNC1=O)C(=O)[C@H](F)Cl` [Example 167b, N-[(1S)-1-[(3S,3aS,6aR)-3-[[[(2R)-2-chloro-2-fluoro-acetyl]-[[(3R)-2-oxo-3-piperidyl]methyl]amino]carbamoyl]-3,3a,4,5,6,6a-hexahydro-1H-cyclopenta[c]pyrrole-2-carbonyl]-2,2-dimethyl-butyl]cyclopropanecarboxamide], the IC50 on MERS-CoV 3CLpro is 1630 nM; against SARS-CoV 3CLpro, 41 nM; against HCoV-229E 3CLpro, 210 nM; against SARS-CoV-2 3CLpro it was 19 nM.
Consider `CCC(C)(C)[C@H](NC(=O)C1CC1)C(=O)N1CC(C)(C)C[C@H]1C(=O)NN(C[C@@H]1CCCNC1=O)C(=O)[C@H](F)Cl` [Example 168a, N-[(1S)-1-[(2S)-2-[[[(2R)-2-chloro-2-fluoro-acetyl]-[[(3S)-2-oxo-3-piperidyl]methyl]amino]carbamoyl]-4,4-dimethyl-pyrrolidine-1-carbonyl]-2,2-dimethyl-butyl]cyclopropanecarboxamide], for which the IC50 against MERS-CoV 3CLpro was found to be 290 nM; at SARS-CoV 3CLpro it was 16 nM; against HCoV-229E 3CLpro it was 104 nM; against SARS-CoV-2 3CLpro it was 11 nM.
With `CCC(C)(C)[C@H](NC(=O)C1CC1)C(=O)N1CC(C)(C)C[C@H]1C(=O)NN(C[C@H]1CCCNC1=O)C(=O)[C@H](F)Cl` [Example 168b, N-[(1S)-1-[(2S)-2-[[[(2R)-2-chloro-2-fluoro-acetyl]-[[(3R)-2-oxo-3-piperidyl]methyl]amino]carbamoyl]-4,4-dimethyl-pyrrolidine-1-carbonyl]-2,2-dimethyl-butyl]cyclopropanecarboxamide], the IC50 came to 2110 nM against MERS-CoV 3CLpro, 185 nM against SARS-CoV 3CLpro, 219 nM on HCoV-229E 3CLpro and 100 nM against SARS-CoV-2 3CLpro.
Turning to `CCC(C)(C)[C@H](NC(=O)C1CC1)C(=O)N1C[C@H]2[C@@H]([C@H]1C(=O)NN(C[C@@H]1CCCNC1=O)C(=O)[C@H](F)Cl)C2(C)C` [Example 169a, N-[(1S)-1-[(1R,2S,5S)-2-[[[(2R)-2-chloro-2-fluoro-acetyl]-[[(3S)-2-oxo-3-piperidyl]methyl]amino]carbamoyl]-6,6-dimethyl-3-azabicyclo[3.1.0]hexane-3-carbonyl]-2,2-dimethyl-butyl]cyclopropanecarboxamide], the IC50 at MERS-CoV 3CLpro is 118 nM; on SARS-CoV 3CLpro it was 20 nM; on HCoV-229E 3CLpro, 56 nM; on SARS-CoV-2 3CLpro, 9 nM.
In the case of `CC[C@H](C)[C@H](NC(=O)C1(F)CC1)C(=O)N1C[C@@H]2CCC[C@@H]2[C@H]1C(=O)NN(C[C@@H]1CCCNC1=O)C(=O)[C@H](F)Cl` [Example 170a, N-[(1S,2S)-1-[(3S,3aS,6aR)-3-[[[(2R)-2-chloro-2-fluoro-acetyl]-[[(3S)-2-oxo-3-piperidyl]methyl]amino]carbamoyl]-3,3a,4,5,6,6a-hexahydro-1H-cyclopenta[c]pyrrole-2-carbonyl]-2-methyl-butyl]-1-fluoro-cyclopropanecarboxamide], the IC50 was found to be 276 nM against MERS-CoV 3CLpro, 25 nM against SARS-CoV 3CLpro, 107 nM at HCoV-229E 3CLpro and 16 nM at SARS-CoV-2 3CLpro.
For `CCC(CC)[C@H](NC(=O)C1CC1)C(=O)N1C[C@@H]2CCC[C@@H]2[C@H]1C(=O)NN(C[C@@H]1CCCNC1=O)C(=O)[C@H](F)Cl` [Example 171a, N-[(1S)-1-[(3S,3aS,6aR)-3-[[[(2R)-2-chloro-2-fluoro-acetyl]-[[(3S)-2-oxo-3-piperidyl]methyl]amino]carbamoyl]-3,3a,4,5,6,6a-hexahydro-1H-cyclopenta[c]pyrrole-2-carbonyl]-2-ethyl-butyl]cyclopropanecarboxamide] the same measures were 130 nM, 17 nM, 94 nM and 8 nM.
Regarding `CCC(CC)[C@H](NC(=O)C1CC1)C(=O)N1C[C@H]2[C@@H]([C@H]1C(=O)NN(C[C@@H]1CCCNC1=O)C(=O)[C@H](F)Cl)C2(C)C` [Example 172, N-[(1S)-1-[(1R,2S,5S)-2-[[[(2R)-2-chloro-2-fluoro-acetyl]-[[(3S)-2-oxo-3-piperidyl]methyl]amino]carbamoyl]-6,6-dimethyl-3-azabicyclo[3.1.0]hexane-3-carbonyl]-2-ethyl-butyl]cyclopropanecarboxamide], the IC50 at MERS-CoV 3CLpro was determined as 187 nM; at SARS-CoV 3CLpro, 26 nM; against HCoV-229E 3CLpro it was 71 nM; against SARS-CoV-2 3CLpro, 17 nM.
For `CCC(CC)[C@H](NC(=O)C(F)F)C(=O)N1C[C@H]2[C@@H]([C@H]1C(=O)NN(C[C@@H]1CCCNC1=O)C(=O)[C@H](F)Cl)C2(C)C` [Example 173, N-[(1S)-1-[(1R,2S,5S)-2-[[[(2R)-2-chloro-2-fluoro-acetyl]-[[(3S)-2-oxo-3-piperidyl]methyl]amino]carbamoyl]-6,6-dimethyl-3-azabicyclo[3.1.0]hexane-3-carbonyl]-2-ethyl-butyl]-2,2-difluoro-acetamide], the IC50 is 175 nM against MERS-CoV 3CLpro, 18 nM at SARS-CoV 3CLpro, 27 nM against HCoV-229E 3CLpro and 13 nM against SARS-CoV-2 3CLpro.
For `CCC(CC)[C@H](NC(=O)C(F)F)C(=O)N1C[C@@H]2CCC[C@@H]2[C@H]1C(=O)NN(C[C@@H]1CCCNC1=O)C(=O)[C@H](F)Cl` [Example 174, N-[(1S)-1-[(3S,3aS,6aR)-3-[[[(2R)-2-chloro-2-fluoro-acetyl]-[[(3S)-2-oxo-3-piperidyl]methyl]amino]carbamoyl]-3,3a,4,5,6,6a-hexahydro-1H-cyclopenta[c]pyrrole-2-carbonyl]-2-ethyl-butyl]-2,2-difluoro-acetamide] the same measures were 123 nM, 12 nM, 29 nM and 10 nM.
Turning to `CCC(C)(C)[C@H](NC(=O)C(F)F)C(=O)N1C[C@@H]2CCC[C@@H]2[C@H]1C(=O)NN(C[C@@H]1CCCNC1=O)C(=O)[C@H](F)Cl` [Example 175, N-[(1S)-1-[(3S,3aS,6aR)-3-[[[(2R)-2-chloro-2-fluoro-acetyl]-[[(3S)-2-oxo-3-piperidyl]methyl]amino]carbamoyl]-3,3a,4,5,6,6a-hexahydro-1H-cyclopenta[c]pyrrole-2-carbonyl]-2,2-dimethyl-butyl]-2,2-difluoro-acetamide], the IC50 against MERS-CoV 3CLpro turned out to be 105 nM; against SARS-CoV 3CLpro it was 15 nM; against HCoV-229E 3CLpro, 37 nM; on SARS-CoV-2 3CLpro, 10 nM.
Turning to `CC[C@H](C)[C@H](NC(=O)C(F)F)C(=O)N1C[C@H]2[C@@H]([C@H]1C(=O)NN(C[C@@H]1CCCNC1=O)C(=O)[C@H](F)Cl)C2(C)C` [Example 176, N-[(1S,2S)-1-[(1R,2S,5S)-2-[[[(2R)-2-chloro-2-fluoro-acetyl]-[[(3S)-2-oxo-3-piperidyl]methyl]amino]carbamoyl]-6,6-dimethyl-3-azabicyclo[3.1.0]hexane-3-carbonyl]-2-methyl-butyl]-2,2-difluoro-acetamide], the half-inhibitory concentration (IC50) on MERS-CoV 3CLpro turned out to be 96 nM; on SARS-CoV 3CLpro it was 16 nM; on HCoV-229E 3CLpro it was 28 nM; against SARS-CoV-2 3CLpro, 11 nM.
As for `CC1(C)[C@@H]2[C@@H](C(=O)NN(C[C@@H]3CCNC3=O)C(=O)[C@H](F)Cl)N(C(=O)c3cc(C(F)(F)F)cc(C(F)(F)F)c3)C[C@@H]21` [Example 177, (1R,2S,5S)-3-[3,5-bis(trifluoromethyl)benzoyl]-N′-[(2R)-2-chloro-2-fluoro-acetyl]-6,6-dimethyl-N′—[[(3S)-2-oxopyrrolidin-3-yl]methyl]-3-azabicyclo[3.1.0]hexane-2-carbohydrazide], the IC50 against MERS-CoV 3CLpro was determined as 278 nM; at SARS-CoV 3CLpro it was 232 nM; at HCoV-229E 3CLpro it was 138 nM; against SARS-CoV-2 3CLpro, 147 nM.
Consider `CC1(C)[C@@H]2[C@@H](C(=O)NN(C[C@@H]3CCNC3=O)C(=O)[C@H](F)Cl)N(C(=O)Cc3cc(C(F)(F)F)cc(C(F)(F)F)c3)C[C@@H]21` [Example 178, (1R,2S,5S)-3-[2-[3,5-bis(trifluoromethyl)phenyl]acetyl]-N′-[(2R)-2-chloro-2-fluoro-acetyl]-6,6-dimethyl-N′—[[(3S)-2-oxopyrrolidin-3-yl]methyl]-3-azabicyclo[3.1.0]hexane-2-carbohydrazide], for which the IC50 at MERS-CoV 3CLpro came out at 264 nM; at SARS-CoV 3CLpro, 259 nM; at HCoV-229E 3CLpro, 65 nM; at SARS-CoV-2 3CLpro it was 148 nM.
Turning to `CC1(C)[C@@H]2[C@@H](C(=O)NN(C[C@@H]3CCNC3=O)C(=O)[C@H](F)Cl)N(C(=O)c3cc(F)cc(C(F)(F)F)c3)C[C@@H]21` [Example 179, (1R,2S,5S)—N′-[(2R)-2-chloro-2-fluoro-acetyl]-3-[3-fluoro-5-(trifluoromethyl)benzoyl]-6,6-dimethyl-N′—[[(3S)-2-oxopyrrolidin-3-yl]methyl]-3-azabicyclo[3.1.0]hexane-2-carbohydrazide], the IC50 against MERS-CoV 3CLpro was found to be 315 nM; on SARS-CoV 3CLpro, 222 nM; at HCoV-229E 3CLpro, 93 nM; at SARS-CoV-2 3CLpro, 201 nM.
